Experimental findings from article PMC3241878 (ACS chemical biology, 2011) are described below.

Some results are limits rather than exact numbers.

The assay has as its target Siderocalin (Scn; a.k.a. Lcn2, Ngal, 24p3) (Homo sapiens, UniProt P80188). The assay can be described thus: intrinsic fluorescence quenching titration. The format is binding. Particulars: pH 7.4, TBS, 5% DMSO, 32 μg/mL ubiquitin, 100 nM protein; ferric complex.

Siderocalin (Scn; a.k.a. Lcn2, Ngal, 24p3), sequence (P80188 21-198): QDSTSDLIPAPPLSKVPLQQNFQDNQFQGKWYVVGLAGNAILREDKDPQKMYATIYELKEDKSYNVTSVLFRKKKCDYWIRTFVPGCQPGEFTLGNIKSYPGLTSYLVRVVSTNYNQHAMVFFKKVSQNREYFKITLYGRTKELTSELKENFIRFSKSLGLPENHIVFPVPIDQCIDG

The term Kd denotes a measure of binding affinity in units of concentration. For Fe^IIICMB (n = 3), the Kd was above 9 µM.

As for Fe^IIICMB (n = 4), the “Kd (μM)” value is 2.36 ± 9.0×10^−3 μM.

For the substance Fe^IIICMB-7 [n = 7], the “Kd (μM)” value is listed as 0.128 ± 1.0×10^−3 μM.

In the case of Fe^IIICMB-5 [n = 5], the “Kd (μM)” value is 1.10 ± 2.6×10^−2 μM.

Regarding Fe^IIICMB-6 [n = 6], the “Kd (μM)” value is on record as 0.654 ± 2.2×10^−2 μM.
